Laboratory results reported in US10681909B2, “Herbicidal triazoles” (FMC Corporation, priority 2014, dated 2020).

Columns and labels:
corn = test: Test A postemergence; type: in vivo, Zea mays; details: 0 to 100 scale (0 no effect, 100 complete control), approx. 10 d
Procedure, shortened: (§1)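 Pre- and postemergence spray tests in a loam soil–sand mixture: seeded soil received a directed spray, while established seedlings 2–10 cm high at the one- to two-leaf stage were treated over the top. Compounds were carried in non-phytotoxic solvent with surfactant.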

foxtail, giant [1] = test: Test A postemergence; type: in vivo, Setaria faberii; details: 0 to 100 scale (0 no effect, 100 complete control), approx. 10 d
Procedure, shortened: as §1

velvetleaf = test: Test C postemergence; type: in vivo, Abutilon theophrasti
Procedure, shortened: (§2)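 Surfactant-containing, non-phytotoxic solvent formulations of each compound were applied either preemergence to seeds in a loam soil–sand blend or postemergence to plants 2 to 18 cm tall (1- to 4-leaf stage). Postemergence plants were grown in peat moss–vermiculite medium.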

nutsedge, yellow = test: Test C postemergence; type: in vivo, Cyperus esculentus
Procedure, shortened: as §2

barnyardgrass [2] = test: Test A postemergence; type: in vivo, Echinochloa crus-galli; details: 0 to 100 scale (0 no effect, 100 complete control), approx. 10 d
Procedure, shortened: as §1

pigweed [3] = test: Test C postemergence; type: in vivo, Amaranthus retroflexus
Procedure, shortened: as §2

barnyardgrass [4] = test: Test C postemergence; type: in vivo, Echinochloa crus-galli
Procedure, shortened: as §2

johnsongrass = test: Test C postemergence; type: in vivo, Sorghum halepense
Procedure, shortened: as §2

foxtail, giant [5] = test: Test C postemergence; type: in vivo, Setaria faberii
Procedure, shortened: as §2

chickweed = test: Test C postemergence; type: in vivo, Stellaria media
Procedure, shortened: as §2

wheat (winter wheat) = test: Test C postemergence; type: in vivo, Triticum aestivum
Procedure, shortened: as §2

oilseed rape = test: Test C postemergence; type: in vivo, Brassica napus
Procedure, shortened: as §2

kochia = test: Test C postemergence; type: in vivo, Kochia scoparia
Procedure, shortened: as §2

ryegrass, Italian = test: Test C postemergence; type: in vivo, Lolium multiflorum
Procedure, shortened: as §2

pigweed [6] = test: Test A preemergence; type: in vivo, Amaranthus retroflexus; details: 0 to 100 scale (0 no effect, 100 complete control)
Procedure, shortened: as §1

oat, wild = test: Test C postemergence; type: in vivo, Avena fatua
Procedure, shortened: as §2

rice = test: Test B flooded paddy test; type: in vivo, Oryza sativa; details: 250 g ai/ha, applied to paddy water at 2-leaf stage, visual rating after 13 to 15 d, scale 0 (no effect) to 100 (complete control)
Procedure, shortened: (§3)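 Pots were flooded to 3 cm above the soil at treatment, and compounds were applied directly into the paddy water. That depth was held throughout. After 13 to 15 d in a greenhouse, plants were rated visually against untreated controls.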

ragweed = test: Test C postemergence; type: in vivo, Ambrosia elatior
Procedure, shortened: as §2

ducksalad = test: Test B flooded paddy test; type: in vivo, Heteranthera limosa; details: 250 g ai/ha, applied to paddy water at 2-leaf stage, visual rating after 13 to 15 d, scale 0 (no effect) to 100 (complete control)
Procedure, shortened: as §3

blackgrass = test: Test C postemergence; type: in vivo, Alopecurus myosuroides
Procedure, shortened: as §2

CCCOc1nc(-c2ccccc2)nn1Cc1ccnc(C(F)(F)F)c1 [Compound 33]
Plant response rating, Corn (corn; 125 g ai/ha): 20
Plant response rating, Corn (corn; 500 g ai/ha): 30
Plant response rating, Foxtail, Giant (foxtail, giant [1]; 125 g ai/ha): 40
Plant response rating, Foxtail, Giant (foxtail, giant [1]; 500 g ai/ha): 90
Plant response rating (scale of 0 to 100 where 0 is no effect and 100 is complete control) (velvetleaf; 31 g ai/ha): 15
Plant response rating (scale of 0 to 100 where 0 is no effect and 100 is complete control) (velvetleaf; 62 g ai/ha): 15
Plant response rating (scale of 0 to 100 where 0 is no effect and 100 is complete control) (velvetleaf; 125 g ai/ha): 10
Plant response rating (scale of 0 to 100 where 0 is no effect and 100 is complete control) (velvetleaf; 250 g ai/ha): 40
Plant response rating (scale of 0 to 100 where 0 is no effect and 100 is complete control) (nutsedge, yellow; 31 g ai/ha): 5
Plant response rating (scale of 0 to 100 where 0 is no effect and 100 is complete control) (nutsedge, yellow; 62 g ai/ha): 10
Plant response rating (scale of 0 to 100 where 0 is no effect and 100 is complete control) (nutsedge, yellow; 125 g ai/ha): 10
Plant response rating (scale of 0 to 100 where 0 is no effect and 100 is complete control) (nutsedge, yellow; 250 g ai/ha): 15
Plant response rating, Barnyardgrass (barnyardgrass [2]; 125 g ai/ha): 20
Plant response rating, Barnyardgrass (barnyardgrass [2]; 500 g ai/ha): 50
Plant response rating (scale of 0 to 100 where 0 is no effect and 100 is complete control) (pigweed [3]; 31 g ai/ha): 95
Plant response rating (scale of 0 to 100 where 0 is no effect and 100 is complete control) (pigweed [3]; 62 g ai/ha): 90
Plant response rating (scale of 0 to 100 where 0 is no effect and 100 is complete control) (pigweed [3]; 125 g ai/ha): 98
Plant response rating (scale of 0 to 100 where 0 is no effect and 100 is complete control) (pigweed [3]; 250 g ai/ha): 98
Plant response rating (scale of 0 to 100 where 0 is no effect and 100 is complete control) (barnyardgrass [4]; 31 g ai/ha): 10
Plant response rating (scale of 0 to 100 where 0 is no effect and 100 is complete control) (barnyardgrass [4]; 62 g ai/ha): 20
Plant response rating (scale of 0 to 100 where 0 is no effect and 100 is complete control) (barnyardgrass [4]; 125 g ai/ha): 20
Plant response rating (scale of 0 to 100 where 0 is no effect and 100 is complete control) (barnyardgrass [4]; 250 g ai/ha): 25
Plant response rating (scale of 0 to 100 where 0 is no effect and 100 is complete control) (johnsongrass; 31 g ai/ha): 5
Plant response rating (scale of 0 to 100 where 0 is no effect and 100 is complete control) (johnsongrass; 62 g ai/ha): 5
Plant response rating (scale of 0 to 100 where 0 is no effect and 100 is complete control) (johnsongrass; 125 g ai/ha): 10
Plant response rating (scale of 0 to 100 where 0 is no effect and 100 is complete control) (johnsongrass; 250 g ai/ha): 15
Plant response rating (scale of 0 to 100 where 0 is no effect and 100 is complete control) (foxtail, giant [5]; 31 g ai/ha): 10
Plant response rating (scale of 0 to 100 where 0 is no effect and 100 is complete control) (foxtail, giant [5]; 62 g ai/ha): 10
Plant response rating (scale of 0 to 100 where 0 is no effect and 100 is complete control) (foxtail, giant [5]; 125 g ai/ha): 15
Plant response rating (scale of 0 to 100 where 0 is no effect and 100 is complete control) (foxtail, giant [5]; 250 g ai/ha): 15
Plant response rating (scale of 0 to 100 where 0 is no effect and 100 is complete control) (chickweed; 31 g ai/ha): 55
Plant response rating (scale of 0 to 100 where 0 is no effect and 100 is complete control) (chickweed; 62 g ai/ha): 60
Plant response rating (scale of 0 to 100 where 0 is no effect and 100 is complete control) (chickweed; 125 g ai/ha): 60
Plant response rating (scale of 0 to 100 where 0 is no effect and 100 is complete control) (chickweed; 250 g ai/ha): 80
Plant response rating (scale of 0 to 100 where 0 is no effect and 100 is complete control) (wheat (winter wheat); 31 g ai/ha): 5
Plant response rating (scale of 0 to 100 where 0 is no effect and 100 is complete control) (wheat (winter wheat); 62 g ai/ha): 5
Plant response rating (scale of 0 to 100 where 0 is no effect and 100 is complete control) (wheat (winter wheat); 125 g ai/ha): 5
Plant response rating (scale of 0 to 100 where 0 is no effect and 100 is complete control) (wheat (winter wheat); 250 g ai/ha): 5
Plant response rating (scale of 0 to 100 where 0 is no effect and 100 is complete control) (oilseed rape; Oilsee Rape, 250 g ai/ha): 60
Plant response rating (scale of 0 to 100 where 0 is no effect and 100 is complete control) (oilseed rape; Oilseed Rape, 31 g ai/ha): 40
Plant response rating (scale of 0 to 100 where 0 is no effect and 100 is complete control) (oilseed rape; Oilseed Rape, 62 g ai/ha): 55
Plant response rating (scale of 0 to 100 where 0 is no effect and 100 is complete control) (oilseed rape; Oilseed Rape, 125 g ai/ha): 80
Plant response rating (scale of 0 to 100 where 0 is no effect and 100 is complete control) (kochia; 31 g ai/ha): 90
Plant response rating (scale of 0 to 100 where 0 is no effect and 100 is complete control) (kochia; 62 g ai/ha): 90
Plant response rating (scale of 0 to 100 where 0 is no effect and 100 is complete control) (kochia; 125 g ai/ha): 90
Plant response rating (scale of 0 to 100 where 0 is no effect and 100 is complete control) (kochia; 250 g ai/ha): 90
Plant response rating (scale of 0 to 100 where 0 is no effect and 100 is complete control) (ryegrass, Italian; 31 g ai/ha): 0
Plant response rating (scale of 0 to 100 where 0 is no effect and 100 is complete control) (ryegrass, Italian; 62 g ai/ha): 5
Plant response rating (scale of 0 to 100 where 0 is no effect and 100 is complete control) (ryegrass, Italian; 125 g ai/ha): 5
Plant response rating (scale of 0 to 100 where 0 is no effect and 100 is complete control) (ryegrass, Italian; 250 g ai/ha): 15
Plant response rating, Pigweed (pigweed [6]; 125 g ai/ha): 90
Plant response rating, Pigweed (pigweed [6]; 500 g ai/ha, approx. 10 d): 90
Plant response rating (scale of 0 to 100 where 0 is no effect and 100 is complete control) (oat, wild; 31 g ai/ha): 10
Plant response rating (scale of 0 to 100 where 0 is no effect and 100 is complete control) (oat, wild; 62 g ai/ha): 10
Plant response rating (scale of 0 to 100 where 0 is no effect and 100 is complete control) (oat, wild; 125 g ai/ha): 20
Plant response rating (scale of 0 to 100 where 0 is no effect and 100 is complete control) (oat, wild; 250 g ai/ha): 25
Plant response rating, Rice, Flood (rice): 0
Plant response rating (scale of 0 to 100 where 0 is no effect and 100 is complete control) (ragweed; 31 g ai/ha): 35
Plant response rating (scale of 0 to 100 where 0 is no effect and 100 is complete control) (ragweed; 62 g ai/ha): 35
Plant response rating (scale of 0 to 100 where 0 is no effect and 100 is complete control) (ragweed; 125 g ai/ha): 40
Plant response rating (scale of 0 to 100 where 0 is no effect and 100 is complete control) (ragweed; 250 g ai/ha): 75
Plant response rating, Ducksalad, Flood (ducksalad): 30
Plant response rating (scale of 0 to 100 where 0 is no effect and 100 is complete control) (blackgrass; 31 g ai/ha): 5
Plant response rating (scale of 0 to 100 where 0 is no effect and 100 is complete control) (blackgrass; 62 g ai/ha): 5
Plant response rating (scale of 0 to 100 where 0 is no effect and 100 is complete control) (blackgrass; 125 g ai/ha): 10
Plant response rating (scale of 0 to 100 where 0 is no effect and 100 is complete control) (blackgrass; 250 g ai/ha): 10
